Drawing on PubChem BioAssay AID192 (DTP/NCI, 2004), this text covers T/C for 21 molecules.

In this experiment the test system is BDF1 mice, B16 melanoma ip, median survival T/C. In words: NCI In Vivo Anticancer Drug Screen. Data for tumor model B16 Melanoma (intraperitoneal) in B6D2F1 (BDF1) mice. As to conditions: endpoint: median survival time, higher = longer survival. Put shortly:
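The ratio T/C compares compound-treated mice with vehicle-treated controls, using survival or tumor size as the endpoint in a transplantable tumor model.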

Setting [1] is: dose: 100.0 mg/kg/injection, schedule: Q01DX009 (ip), vehicle: saline.
[2] abbreviates: dose: 200.0 mg/kg/injection, schedule: Q01DX009 (ip), vehicle: saline.
Where [3] appears, read: dose: 400.0 mg/kg/injection, schedule: Q01DX009 (ip), vehicle: saline.
The mark [4] stands for this setting: dose: 25.0 mg/kg/injection, schedule: Q01DX009 (ip), vehicle: Klucel (hydroxypropylcellulose) (HPC).
[5] abbreviates: dose: 50.0 mg/kg/injection, schedule: Q01DX009 (ip), vehicle: Klucel (hydroxypropylcellulose) (HPC).
Where [6] appears, read: dose: 6.25 mg/kg/injection, schedule: Q01DX009 (ip), vehicle: Klucel (hydroxypropylcellulose) (HPC).
Where [7] appears, read: dose: 12.5 mg/kg/injection, schedule: Q01DX009 (ip), vehicle: Klucel (hydroxypropylcellulose) (HPC).

Several values for one entry are separate records, joined by “and”; a condition that tells them apart may be missing. Equal values may be shown once. Inconclusive results and toxic doses are left out.

`CSCS(=O)C[C@H](CO)NC(=O)/C=C/c1c(C)[nH]c(=O)[nH]c1=O` (stereo partly specified): the T/C was 95 % of control (dose: 0.06 mg/kg/injection, schedule: Q01DX009 (ip), vehicle: Klucel (hydroxypropylcellulose) (HPC)); 99 % of control (dose: 0.08 mg/kg/injection, schedule: Q01DX009 (ip), vehicle: water); 105 % of control (dose: 0.15 mg/kg/injection, schedule: Q01DX009 (ip), vehicle: water); 108 % of control (dose: 0.3 mg/kg/injection, schedule: Q01DX009 (ip), vehicle: water); 91 % of control (dose: 0.6 mg/kg/injection, schedule: Q01DX009 (ip), vehicle: water); 94 % of control (dose: 0.98 mg/kg/injection, schedule: Q04DX003 (ip), vehicle: saline). Further, the T/C by setting is: (dose: 1.4 mg/kg/injection, schedule: Q04DX003 (ip), vehicle: saline) 113 % of control; (dose: 2.0 mg/kg/injection, schedule: Q04DX003 (ip), vehicle: saline) 101 % of control.
As to `Cc1ccc2oc(-c3ccccc3)c(O)c(=O)c2c1`, the T/C was 106 % of control under setting [1], 108 % of control under setting [2] and 104 % of control under setting [3].
For the molecule `CC(C)C(NC(=O)OC(C)(C)C)C(=O)O` (stereo unspecified), the T/C reads like this: under setting [4], 123 % of control; under setting [5], 101 % of control.
Turning to `Cn1ccc(=Nc2ccc(NC(=O)c3ccc(N=c4ccn(C)c5ccc([N+](=O)[O-])cc45)cc3)cc2)cc1`, the T/C was 101 % of control (dose: 3.13 mg/kg/injection, schedule: Q01DX009 (ip), vehicle: other); 101 % of control (dose: 6.25 mg/kg/injection, schedule: Q01DX009 (ip), vehicle: other); 100 % of control (dose: 12.5 mg/kg/injection, schedule: Q01DX009 (ip), vehicle: other); 97 % of control (dose: 25.0 mg/kg/injection, schedule: Q01DX009 (ip), vehicle: other).
For the molecule `CCCNC1=C(N2CC2)C(=O)C(NCCC)=C(N2CC2)C1=O`, the T/C (dose: 1.25 mg/kg/injection, schedule: Q01DX009 (ip), vehicle: saline) was 108 % of control.
With `NCCN1CCc2ccccc2C1`, the T/C is, setting by setting: (dose: 6.25 mg/kg/injection, schedule: Q04DX003 (ip), vehicle: saline) 113 % of control; (dose: 12.5 mg/kg/injection, schedule: Q04DX003 (ip), vehicle: saline) 110 % of control; (dose: 16.5 mg/kg/injection, schedule: Q04DX003 (ip), vehicle: saline) 112 % of control; (dose: 25.0 mg/kg/injection, schedule: Q04DX003 (ip), vehicle: saline) 112 % of control and 115 % of control; (dose: 37.5 mg/kg/injection, schedule: Q04DX003 (ip), vehicle: saline) 110 % of control.
`COc1ccc2c(c1OC(C)=O)-c1cc(O)cc3c1C(C2)N(C(=O)CN(CCCl)CCCl)CC3` (stereo unspecified): the T/C runs as follows: (dose: 3.12 mg/kg/injection, schedule: Q01DX009 (ip), vehicle: saline with Tween-80) 168 % of control; (dose: 6.25 mg/kg/injection, schedule: Q01DX009 (ip), vehicle: saline with Tween-80) 187 % of control; (dose: 6.25 mg/kg/injection, schedule: Q04DX003 (ip), vehicle: DMSO) 103 % of control; (dose: 12.5 mg/kg/injection, schedule: Q01DX009 (ip), vehicle: saline with Tween-80) 197 % of control; (dose: 12.5 mg/kg/injection, schedule: Q04DX003 (ip), vehicle: DMSO) 121 % of control; (dose: 25.0 mg/kg/injection, schedule: Q04DX003 (ip), vehicle: DMSO) 110 % of control. Moreover, the T/C (dose: 100.0 mg/kg/injection, schedule: Q04DX003 (ip), vehicle: DMSO) was 112 % of control.
For `NC(N)=NOCC[C@@H](N)C(=O)O`, the T/C is 105 % of control (dose: 50.0 mg/kg/injection, schedule: Q01DX009 (ip), vehicle: saline); 101 % of control under setting [1]; 100 % of control under setting [2]; 99 % of control under setting [3].
For the molecule `CC(=O)NC(CO)C(=O)c1ccc(S(=O)(=O)c2ccccc2)cc1` (stereo unspecified), the T/C (dose: 100.0 mg/kg/injection, schedule: Q01DX009 (ip), vehicle: saline with Tween-80) is 102 % of control and the T/C (dose: 200.0 mg/kg/injection, schedule: Q01DX009 (ip), vehicle: saline with Tween-80) is 93 % of control.
Regarding `CC[n+]1ccc(/C=C\c2c(Cl)cccc2Cl)cc1`, the T/C was 94 % of control under setting [6], 88 % of control under setting [7] and 88 % of control under setting [4].
Turning to `O=C(COc1ccc(Cl)cc1)NCCc1ccccc1`, the T/C was 93 % of control (dose: 100.0 mg/kg/injection, schedule: Q01DX009 (ip), vehicle: Klucel (hydroxypropylcellulose) (HPC)); 103 % of control (dose: 200.0 mg/kg/injection, schedule: Q01DX009 (ip), vehicle: Klucel (hydroxypropylcellulose) (HPC)); 90 % of control (dose: 400.0 mg/kg/injection, schedule: Q01DX009 (ip), vehicle: Klucel (hydroxypropylcellulose) (HPC)).
Consider `C[Si](C)(O[Si](C)(C)c1ccccc1)c1ccccc1`, for which the T/C (dose: 25.0 mg/kg/injection, schedule: Q01DX009 (ip), vehicle: saline) was 123 % of control and the T/C under setting [1] was 114 % of control.
`ClC(Cl)(Cl)C(Nc1ccccc1)Nc1ccccc1`: the T/C is, setting by setting: under setting [6], 89 % of control; under setting [4], 86 % of control.
As to `O=[N+]([O-])/C=C\c1ccc2c(c1)OCO2`, the T/C was 96 % of control (dose: 22.0 mg/kg/injection, schedule: Q01DX009 (ip), vehicle: Klucel (hydroxypropylcellulose) (HPC)); 108 % of control (dose: 33.0 mg/kg/injection, schedule: Q01DX009 (ip), vehicle: Klucel (hydroxypropylcellulose) (HPC)); 96 % of control under setting [5]; 100 % of control (dose: 75.0 mg/kg/injection, schedule: Q01DX009 (ip), vehicle: Klucel (hydroxypropylcellulose) (HPC)).
Consider `O=C(O)C1CC(c2ccccc2)=NN1c1ccccc1` (stereo unspecified), for which the T/C by setting is: (dose: 12.5 mg/kg/injection, schedule: Q01DX009 (ip), vehicle: water) 104 % of control; (dose: 25.0 mg/kg/injection, schedule: Q01DX009 (ip), vehicle: water) 99 % of control and 100 % of control; (dose: 50.0 mg/kg/injection, schedule: Q01DX009 (ip), vehicle: water) 99 % of control; (dose: 100.0 mg/kg/injection, schedule: Q01DX009 (ip), vehicle: water) 97 % of control and 110 % of control; (dose: 200.0 mg/kg/injection, schedule: Q01DX009 (ip), vehicle: water) 104 % of control and 110 % of control.
`O=[N+]([O-])OCc1c(Cl)nc(Cl)c(Cl)c1Cl`: the T/C runs as follows: (dose: 15.0 mg/kg/injection, schedule: Q01DX009 (ip), vehicle: Klucel (hydroxypropylcellulose) (HPC)) 111 % of control; (dose: 30.0 mg/kg/injection, schedule: Q01DX009 (ip), vehicle: Klucel (hydroxypropylcellulose) (HPC)) 108 % of control; (dose: 60.0 mg/kg/injection, schedule: Q01DX009 (ip), vehicle: Klucel (hydroxypropylcellulose) (HPC)) 88 % of control.
As for `COc1cc2c(c(OC)c1OC)-c1ccc(OC)c(=O)cc1[C@@H](NC(=O)CF)CC2`, the T/C was 116 % of control (dose: 0.04 mg/kg/injection, schedule: Q01DX009 (ip), vehicle: saline with Tween-80) and 118 % of control (dose: 0.09 mg/kg/injection, schedule: Q01DX009 (ip), vehicle: saline with Tween-80).
For the molecule `COc1cccc2c1C(=O)c1c(O)c3c(c(O)c1C2=O)C[C@H](O)C[C@@H]3OC1CC(N)C(O)C(C)O1` (stereo partly specified), the T/C (dose: 12.5 mg/kg/injection, schedule: Q01DX001 (ip), vehicle: water) is 169 % of control; the T/C (dose: 50.0 mg/kg/injection, schedule: Q01DX001 (ip), vehicle: water) is 110 % of control and 169 % of control and 267 % of control; the T/C (dose: 100.0 mg/kg/injection, schedule: Q01DX001 (ip), vehicle: water) was 110 % of control.
As for `CCC(c1ccc(OC(=O)Cc2ccc(N(CCCl)CCCl)cc2)cc1)C(CC)c1ccc(OC(=O)Cc2ccc(N(CCCl)CCCl)cc2)cc1` (stereo unspecified), the T/C runs as follows: under setting [6], 106 % of control; under setting [7], 110 % of control; under setting [4], 96 % of control; under setting [5], 88 % of control; (dose: 64.0 mg/kg/injection, schedule: Q02DX009 (ip), vehicle: saline with Tween-80) 95 % of control and 98 % of control; (dose: 128.0 mg/kg/injection, schedule: Q02DX009 (ip), vehicle: saline with Tween-80) 91 % of control. For the same molecule, the T/C (dose: 256.0 mg/kg/injection, schedule: Q02DX009 (ip), vehicle: saline with Tween-80) was 92 % of control.
For the molecule `O=[N+]([O-])c1ccc2scc3c4ccccc4nc-3c2c1`, the T/C is, setting by setting: (dose: 6.25 mg/kg/injection, schedule: Q01DX009 (ip), vehicle: saline) 90 % of control; (dose: 12.5 mg/kg/injection, schedule: Q01DX009 (ip), vehicle: saline) 99 % of control.
On to `FC(F)(F)c1ccc2nc(CI)c(CI)nc2c1`, for which the T/C is 110 % of control under setting [6], 93 % of control under setting [7], 96 % of control under setting [4] and 93 % of control under setting [5].
